{"source": "patent US7358091B2", "about": "“Device and methods for identifying and treating aspirin non-responsive patients” (Portola Pharmaceuticals, Inc., priority 2004, dated 2008)", "key": {"[1]": {"test_system": "preformed thrombi on collagen coated surface", "experiment": "Real time thrombosis perfusion chamber assay, destabilization of preformed thrombi", "format": "cell-based", "conditions": "for effect on preformed thrombi, aspirin background: aspirinated blood over preformed aspirinated thrombi; for mean slope after first perfusion (mSAFP), aspirin background: aspirinated blood, aspirin alone = saline control, eptifibatide; for mean slope after first perfusion (mSAFP), aspirin background / mean slope after first perfusion (mSAFP): 2-MeSAMP 100 μM; for mean slope after first perfusion (mSAFP): untreated blood 210 seconds at 1500/sec, then blood treated with agent, eptifibatide 2.4 μM, Ifetroban 0.3 μM; for effect on preformed thrombi: untreated blood background, second perfusion with agent", "protocol": "Evaluation of the ability of thromboxane receptor (TP) antagonists to destabilize preformed thrombi was performed as followed in the real time thrombosis perfusion chamber assay (monitoring of fluorescently labeled platelets onto collagen coated surface). Untreated samples of blood were first perfused through the collagen-coated perfusion chamber for 210 seconds at 1500/sec. […] In order to evaluate a possible role for PGD2 in mediating thrombus destabilization, aspirinated blood was perfused in presence of PDG2 over preformed aspirinated thrombi."}, "[2]": {"test_system": "aggregation induced by ADP", "experiment": "Aggregation induced by ADP", "format": "cell-based", "conditions": "100 μM"}, "[3]": {"molecular_target": "T1, P2Y12 receptor (Homo sapiens, UniProt Q9H244)", "T1 construct": "endogenous in cells; host or cells: platelets in citrate-anticoagulated whole blood of blood donors", "T1 sequence (Q9H244 whole entry, the tested form may be a part)": "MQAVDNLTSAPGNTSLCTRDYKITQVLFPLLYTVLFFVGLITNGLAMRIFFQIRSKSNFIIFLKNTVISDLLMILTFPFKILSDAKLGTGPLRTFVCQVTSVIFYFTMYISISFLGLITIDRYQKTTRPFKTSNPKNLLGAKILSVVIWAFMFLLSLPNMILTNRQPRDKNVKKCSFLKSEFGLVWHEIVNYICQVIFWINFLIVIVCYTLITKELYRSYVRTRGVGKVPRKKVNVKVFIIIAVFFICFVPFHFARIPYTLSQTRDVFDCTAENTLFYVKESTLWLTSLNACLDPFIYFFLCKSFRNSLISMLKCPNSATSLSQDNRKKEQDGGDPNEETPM", "experiment": "P2Y12 receptor blockade in vitro in whole blood", "format": "cell-based", "conditions": "5 μM", "protocol": "(§1) FIG. 9 is a representation of the thrombotic deposits formed on type III collagen at 1000/sec in the rectangular perfusion chamber in 2 blood donors, before and after aspirin uptake (325 mg/d for 3 days). Anticoagulated blood (citrate 3.8%, 1:9 v of blood) is collected and added into 5 ml tubes containing either DMSO (vehicle control for the P2Y12 antagonist), a direct P2Y12 antagonist at 5 μM (which totally block the receptor), or a direct P2Y12 antagonist at 5 μM in presence of 20 μM Epinephrine. Anticoagulated blood is perfused through a rectangular capillary (0.2×2 mm, Vitrocom) coated with fibrillar type III collagen at 1000/sec for 4 minutes. Thrombotic deposits are then rinsed for 15 seconds with buffer “C”, fixed for 1 minute in phosphate-buffered glutaraldehyde (2.5%), stained for 45 sec in toluidine blue. Picture is taken at 5 mm from the proximal part of the chamber, and measurement of the grey level performed with Prism software.\nMost ACS patients eligible for percutaneous coronary intervention (PCI) are under PLAVIX (clopidogrel bisulfate) therapy. […]"}, "[4]": {"test_system": "mixed platelet/leukocyte aggregates", "experiment": "Arachidonic acid-/shear-induced platelet aggregation assay in whole blood", "format": "cell-based", "conditions": "0.8 mM arachidonic acid, 1700/sec followed by 80/sec", "protocol": "FIG. 10 is a schematic representation of the AA/shear-induced thrombotic process utilized in our preliminary study. AA (0.8 mM) is added to citrate-anticoagulated blood (37° C. incubation time=1 minute) then perfused via a silastic tubing to a stenosis (high shear rate, 1700/sec: Hγ) followed by a low shear rate area (80/sec: Lγ). Observation of the mixed platelet/leukocyte aggregates is performed under UV at 10× magnification using a fluorescent microscope.\nPlatelets are labeled in whole blood with Rhodamine 6G as described above. Following addition of AA, blood will be perfused through 2 successive chambers which generate high (1500/sec) and low (50/sec) shear rates. The high shear rate induces platelet activation and aggregation is created by a sudden decrease in capillary diameter. The low shear rate area allows for the real time evaluation/quantification of the size of the platelet/platelet, platelet/leukocyte aggregates that will pass and/or adhere via the Simple PCI software or similar software capable of evaluating the size of the flowing thrombi.\nLarge mixed platelet/leukocyte aggregates are detectable in the low shear area (observable after less than 30 seconds) when whole blood is treated with 0.8 mM arachidonic acid and perfusion through a small uncoated circular capillary at 1700/sec followed by a larger capillary at 80/sec. […]"}, "[5]": {"test_system": "platelet aggregation", "experiment": "Ultegra RPFA-ASA assay in whole blood", "format": "cell-based, human", "conditions": "aspirin 275 μM added to the blood in vitro; all 5 blood donors; compared with 50% inhibition of P2Y12", "experimental": "Whole blood was drawn into 3.2% Sodium citrate vacuum tubes and analyzed using the Ultegra RPFA-ASA assay. Sample results are based on the extent of platelet aggregation, reported in Aspirin Reaction Units (ARU). ARU≥250 is consistent with no platelet dysfunction, ARU<550 is consistent with platelet dysfunction due to aspirin.\nThe effects of aspirin (275 μM added to the blood in vitro) and 50% inhibition of P2Y12 (corresponding to the extent of inhibition achieved in patients under PLAVIX (clopidogrel bisulfate) treatment) were evaluated in the RPFA-ASA (n=5). A direct P2Y12 antagonist (5-chloro-N-[({4-[7-fluoro-6-(methylamino)-1-oxoisoquinolin-2(1H)-yl]phenyl}amino)carbonyl]thiophene-2-sulfonamide) is used in vitro at a concentration that inhibits 50% of ADP-induced platelet aggregation in PRP as PLAVIX (clopidogrel bisulfate) cannot be used in vitro (it needs to be metabolized by the liver to generate the active metabolite)."}, "[6]": {"test_system": "platelet aggregation in PRP", "experiment": "Arachidonic acid-induced platelet aggregation in PRP", "format": "cell-based, human", "conditions": "325 mg/d ASA for 3 days, compared with baseline, all 5 donors", "protocol": "(§2) The effects of aspirin (normal volunteers were drug free for 2 weeks prior to 325 mg/d ASA for 3 days) and 50% inhibition of P2Y12 on arachidonic acid-induced platelet aggregation in PRP, TxB2 generation, PFA-100 with both Collagen/Epinephrine (CEpi) and Collagen/ADP (CADP) cartridges were evaluated. Arachidonic acid-induced platelet aggregation and TxB2 generation were abolished by aspirin treatment compared with baseline for all 5 donors. […] All donors gave the expected prolongation of the CEpi cartridge after aspirin treatment. In addition, 2 out of 5 donors presented unusual phenotypes (FIG. 6). In donor 1, aspirin increased the CADP closure time, whereas in donor 2, P2Y12 antagonism increased closure time of the CEpi cartridge above the limit defined by the manufacturer for aspirin effect."}, "[7]": {"test_system": "thrombotic process on collagen", "experiment": "Fibrillar type III collagen-coated capillary perfusion chamber at arterial shear rates", "format": "cell-based, human", "protocol": "In one example of the perfusion chamber assay of the invention, the assay enables the investigator to evaluate thrombotic process under arterial shear rates in less than 15 minutes after blood draw. The simplicity of the perfusion chamber allows for multiple parallel experiments as the thrombogenic surface is deposited inside a regular glass capillary tube. The system is easy to use as only 2 tubings are needed: a proximal tubing to connect the blood sample to the capillary, and a distal tubing which connects the capillary to the pump. A limited amount of blood is required to reconstitute arterial shear rate conditions (4 ml of blood for 1 perfusion chamber). […]\nAt the end of the perfusion, the capillary is rinsed for 20 sec and fixed with 2.5% phosphate buffered glutaraldehyde for 1 minute. […] An En Face picture located 5 mm downstream of the proximal part of the capillary is taken, and the grey level of each thrombus or platelets located in a window 400 μm long×400 μm wide is measured (Simple PCI software, Compix Inc. Imaging System). Thrombotic deposits were then embedded in Epon, subsequently cross sectioned (at the same location used for measurement of the grey level) and their mean thrombus volume determined. […]"}, "[8]": {"test_system": "patients", "conditions": "human, in vivo; cited from earlier work"}, "[9]": {"test_system": "thrombotic deposits on type III collagen", "experiment": "Perfusion chamber assay on type III collagen at 1000/sec, end-point grey level", "format": "cell-based, human", "conditions": "citrate blood, 2 donors before and after aspirin 325 mg/d for 3 days, DMSO-treated and P2Y12 antagonism+epinephrine-treated blood", "protocol": "as §1\nA perfusion chamber assay on type III collagen (DMSO (vehicle) treated (a), full P2Y12 antagonism (b), full P2Y12 antagonism with epinephrine 20 μM(c)) have been performed before and 3 days after a daily dose of aspirin (325 mg)."}, "[10]": {"test_system": "TxB2 generation", "experiment": "TxB2 generation", "format": "cell-based, human", "conditions": "325 mg/d ASA for 3 days, compared with baseline, all 5 donors", "protocol": "as §2"}, "[11]": {"test_system": "platelet function under high shear stress", "experiment": "PFA-100 closure time, CEpi and CADP cartridges", "format": "cell-based, human", "conditions": "325 mg/d ASA for 3 days", "from_the_text": "Whole blood was drawn into 3.8% Sodium citrate vacuum tubes and analyzed using the Platelet Function Analyzer (PFA-100). Sample results are based on the platelet function under high shear stress. Platelet adhesion and aggregation are triggered by a biologically active membrane coated with collagen and either epinephrine (EPI) or ADP. Platelets exposed to EPI or ADP under flow conditions are activated on the collagen surface. The time required to full occlusion of an aperture cut in the membrane defines the “closure time” (CT).\nas §2"}, "[12]": {"test_system": "P2Y12-deficient mice", "conditions": "injection of epinephrine in vivo; cited from earlier work"}, "[13]": {"test_system": "P2Y12-deficient mice", "from_the_text": "This phenotype is rescued by the injection of epinephrine in vivo (Andre, P. et al., J Clin Invest, 112(3):398-406 (2003))."}, "[14]": {"test_system": "thrombus formation on type III collagen", "experiment": "Real time collagen-coated perfusion chamber, kinetics of thrombus formation", "format": "cell-based, human", "conditions": "2.5 μM, PPACK-anticoagulated blood, collagen type III-coated capillary", "experimental": "Phe-Pro-Arg-chloromethylketone (PPACK)-anticoagulated blood is added to a tube containing Rhodamine 6-glucose (Rhodamine 6G) (0.2 mg/ml). Five minutes later, blood is perfused through a rectangular capillary mounted on the stage of an inverted microscope (under ultraviolet (UV) light (Rhodamine filter) platelets appear fluorescent). As the blood flows on the collagen type III-coated capillary chamber, platelets adhere and start building a thrombus. Two frames per second are recorded and analyzed for mean fluorescent intensity for the entire perfusion period. At the end of the perfusion, standard deviation in light intensity is plotted against the time by the Prism software.\nAfter blood collection into either citrate or PPACK (4 ml are needed per perfusion chamber) Rhodamine 6G (0.2 mg/mL) is added to the blood and incubated at 37° C. for 5 minutes. Collagen-coated rectangular glass capillaries (Vitrocom) are mounted on the stage of a fluorescent microscope and illuminated under light, UV, or both. […] Platelet collagen interactions and thrombus formation are recorded in real time with the Simple PCI software. The mean fluorescence intensity parallels the kinetics of the thrombotic process, because all platelets are labeled by rhodamine 6G. The kinetics of the thrombotic process is recorded at 2 frames per second for 5 minutes and plotted versus time."}}, "note": "Bridge positions count the residues as written; N and C are the ends. Square brackets hold non-standard residues; d marks the D form. Peptide text beside a SMILES is read from it. hArg = N=C(N)NCCCC[C@H](N)C(=O)O; Mpa = O=C(O)CCS"}
{"compound": "CSc1nc(N)c2ncn([C@@H]3O[C@H](COP(=O)(O)O)[C@@H](O)[C@H]3O)c2n1", "note": "[2-MeSAMP]", "values": [{"measurement": "effect on preformed thrombi, aspirin background", "setting": "[1]", "result": "sudden dethrombosis"}, {"measurement": "mean slope after first perfusion (mSAFP), aspirin background", "setting": "[1]", "result": "−4.1±0.7"}, {"measurement": "mean slope after first perfusion (mSAFP)", "setting": "[1]", "result": "−1.8±0.2"}, {"measurement": "effect on preformed thrombi", "setting": "[1]", "result": "marked dethrombosis"}, {"measurement": "aggregation induced by ADP", "setting": "[2]", "result": "totally blocks"}]}
{"compound": "CNc1cc2ccn(-c3ccc(NC(=O)NS(=O)(=O)c4ccc(Cl)s4)cc3)c(=O)c2cc1F", "note": "[5-chloro-N-[({4-[7-fluoro-6-(methylamino)-1-oxoisoquinolin-2(1H)-yl]phenyl}amino)carbonyl]thiophene-2-sulfonamide]", "values": [{"measurement": "blockade of the P2Y12 receptor", "setting": "[3]", "result": "full blockade"}]}
{"compound": "CCCCCNC(=O)c1coc([C@H]2[C@@H](Cc3ccccc3CCC(=O)O)[C@@H]3CC[C@H]2O3)n1", "note": "[Ifetroban]", "values": [{"measurement": "effect on preformed thrombi, aspirin background", "setting": "[1]", "result": "abolished the destabilization effects"}, {"measurement": "mean slope after first perfusion (mSAFP)", "setting": "[1]", "result": "−2.5±0.6"}]}
{"compound": "CCCCC[C@H](O)/C=C/[C@H]1C(=O)C[C@H](O)[C@@H]1C/C=C\\CCCC(=O)O", "note": "[PDG2, PGD2]", "values": [{"measurement": "effect on preformed thrombi, aspirin background", "setting": "[1]", "result": "significant, spontaneous reversal of thrombosis"}]}
{"compound": "CC(C)(C)N/C(=N\\C#N)Nc1cccc(/C(=C\\CCCC(=O)O)c2cccnc2)c1", "note": "[Terbogrel]", "values": [{"measurement": "large mixed platelet/leukocyte aggregates in the low shear area", "setting": "[4]", "result": "prevented"}]}
{"compound": "CC(=O)Oc1ccccc1C(=O)O", "note": "[aspirin]", "values": [{"measurement": "effect on preformed thrombi, aspirin background", "setting": "[1]", "result": "slow and moderate destabilization"}, {"measurement": "mean slope after first perfusion (mSAFP), aspirin background", "setting": "[1]", "result": "−1.07±0.3"}, {"measurement": "aspirin effects in RPFA-ASA (Aspirin Reaction Units)", "setting": "[5]", "result": "smaller than that obtained with 50% inhibition of P2Y12"}, {"measurement": "arachidonic acid-induced platelet aggregation in PRP", "setting": "[6]", "result": "abolished"}, {"measurement": "antithrombotic effects on collagen in combination with P2Y12 inhibitors", "setting": "[7]", "result": "synergize"}, {"measurement": "patients with aspirin-induced asthma", "setting": "[8]", "result": "≤ 20", "unit": "%"}, {"measurement": "reduction of post-acute myocardial infarction (AMI) cardiovascular events", "setting": "[8]", "result": "25-30%"}, {"measurement": "reduction of the incidence of AMI in the acute phase of unstable angina", "setting": "[8]", "result": "up to 25%"}, {"measurement": "thrombotic deposits formed on type III collagen (grey level)", "setting": "[9]", "result": "aspirin effect is observed"}, {"measurement": "large mixed platelet/leukocyte aggregates in the low shear area", "setting": "[4]", "result": "prevented"}, {"measurement": "TxB2 generation", "setting": "[10]", "result": "abolished"}, {"measurement": "PFA-100 closure time, CEpi cartridge", "setting": "[11]; all donors", "result": "prolongation"}, {"measurement": "PFA-100 closure time, CADP cartridge", "setting": "[11]; donor 1 (unusual phenotype)", "result": "increased"}]}
{"compound": "CNC[C@H](O)c1ccc(O)c(O)c1", "note": "[epinephrine]", "values": [{"measurement": "protection of P2Y12-deficient mice from vascular occlusion after FeCl3 injury", "setting": "[12]", "result": "rescued"}, {"measurement": "phenotype of P2Y12-deficient mice in a collagen-coated perfusion chamber", "setting": "[13]", "result": "correct the phenotype"}]}
{"compound": "N=C(N)NCCCC[C@@H]1NC(=O)CCSSC[C@@H](C(N)=O)NC(=O)[C@@H]2CCCN2C(=O)[C@H](Cc2c[nH]c3ccccc23)NC(=O)[C@H](CC(=O)O)NC(=O)CNC1=O", "note": "[eptifibatide] ([Mpa][hArg]GDWPC-NH2; disulfide 1-7)", "values": [{"measurement": "effect on preformed thrombi, aspirin background", "setting": "[1]", "result": "sudden dethrombosis"}, {"measurement": "mean slope after first perfusion (mSAFP), aspirin background", "setting": "[1]", "result": "−2.6±0.9"}, {"measurement": "mean slope after first perfusion (mSAFP)", "setting": "[1]", "result": "0.17±0.22"}, {"measurement": "effect on preformed thrombi", "setting": "[1]", "result": "no apparent destabilization"}, {"measurement": "thrombotic profile (real time kinetics of thrombus formation)", "setting": "[14]", "result": "flat curve"}]}
